{"source": "patent US9879036B2", "about": "“Mitochondrial aldehyde dehydrogenase-2 binding compounds and methods of use thereof” (Aviv Therapeutics, Inc., priority 2014, dated 2018)", "system": "FANCA deficiency lymphocyte cell line (FANCA B-lymphocyte, GM13022)", "experiment": "Proliferation of FANCA deficient lymphocytes under 4 HNE challenge (alamarBlue)", "format": "cell-based", "description": "FANCA deficiency lymphocyte cell line (Fanconi Anemia, Complementation Group A, FANCA B-lymphocyte, GM13022) was purchased from Coriell Cell Repositories (403 Haddon Ave, Camden, N.J. 08103).\nStandard cell culture conditions were used in this experiment. The culture medium (CM) consisted of culture medium RPMI1640, 15% heat-inactivated FBS, 2 mM L-glutamine, 1% Pen/Strep. Cells were suspended in 10-20 ml CM in T25 tissue culture flask in an upright position and incubated in a 37° C., 5% CO2 incubator. Cells were counted daily and diluted with fresh CM to 3×10^5 cells/ml. Cells thawed and maintained in culture for 3-12 days were used in these studies.\nCell densities of FANCA lymphocytes were determined and cells were diluted in RPMI1640 medium containing 15% FBS, 2 mM L-glutamine, 1% Pen/Strep to desired cell density. 4000 cells in 50-75 μl were plated onto each well in total 48 wells in columns 3-10 and rows B-G. This plating arrangement provided 6-replicates per column for each experimental condition. Plate was then centrifuged at 500 rpm for 2 min to ensure better distribution of cells across the well. For background medium controls, equal volume (50-75 μl) of dilution medium were added to wells B2, C2, D2.\nFor minimizing cells/medium drying in sample wells, 150 μl of 1×DPBS was added to each well of the 45 wells surrounding the sample and control wells. Plate was then incubated in a 37° C. 5% CO2 incubator for at least 4 hours before addition of new reagent.\nCompounds were diluted from 20 mM stocks in DMSO with RPMI1640 medium containing 15% FBS. RPMI1640 medium containing 15% FBS and corresponding volume of DMSO was used as controls.\n4 HNE (64 mM in 100% ethanol) was diluted to desired concentrations with RPMI1640 base medium.\nAlamarBlue was added to each well to final 9.1 or 10% of the total volume in each well. Plate was further incubated in the 37° C. 5% CO2 incubator. The alamarBlue assay is designed to measure quantitatively the proliferation of human and animal cell lines in culture versus incubation time period.\nPlate was removed from the CO2 incubator at a pre-designated time and placed in the microplate reader. The fluorescence level in each well was monitored at Ex 554 nm and Em 590 nm. Afterwards the numeric numbers/units were used for data analyses.\nFluorescence units in all wells were acquired by the microplate reader at each time point. Data were then exported to scientist's computer equipped with SoftMax ProS software. The average of Background units (Blk, 3×) and the average of each sample set (6 replicates) were determined. For data collected at each time point (cell culture incubation period), the average of Blk units were subtracted from the average of each set of the Sample units. These “net fluorescence unit” data were then presented in a plot consisted of different culture incubation time periods (the x-axis) versus the corresponding net fluorescence units (y-axis).\nThe “net fluorescence units” of each sample set were also compared to those of the “control” at each time point. “Control fluorescence units” were considered to be 100% at all the time points. Each set of “net fluorescence units” were divided by the “Control fluorescent units” and multiplied by 100 to obtain corresponding percentages. These “relative percentage” data were then presented in a plot consisted of time points (the x-axis) versus the corresponding relative percentages to control of 100 (y-axis).\nThe inhibitory effect of 4 HNE on the proliferation of FANCA lymphocytes was examined. 4000 cells in 75 μl of RPMI1640 medium containing 15% FBS were plated onto each sample well in a 96-well poly D-lysine coated black/clear cell culture plate and the plate was incubated in a 37° C. 5% CO2 incubator for 7 hours.\nStock of 4 HNE at 64 mM was diluted with RPMI1640 medium to 10 μM, 20 μM, 30 μM, 40 μM, 60 μM, 80 μM, and 120 μM. […]", "note": "“Also recorded” adds a separate entry of the source."}
{"compound": "COc1ccc(CNC(=O)c2cc(-c3ncccc3CO)ccc2OCC2CC2)cc1F", "note": "[AC6]", "values": [{"measurement": "duration of cell-protective / cell growth promoting effect in FANCA cells", "value": "at least 48 hours"}, {"measurement": "relative cell proliferation versus control without AC compounds", "setting": "3.5 μM 4 HNE, 5 μM and 10 μM AC6, 10 μM AC32, 25 hours to 48 hours after 4 HNE treatment", "value": "higher levels of cell growth than “control”; also recorded: more efficient growth than control"}, {"measurement": "cell proliferation rate", "setting": "10 μM AC6, 6 μM 4 HNE, between 25 and 48 hours after 4 HNE treatment", "value": "an increase in the cell proliferation rate"}, {"measurement": "FANCA-deficiency lymphocyte cell growth versus 4 HNE only or 2 μM ALDH2 activators", "setting": "10 μM compound, pretreatment 2 hours before 6 μM 4 HNE challenge", "value": "higher levels of cell growth"}, {"measurement": "FANCA-deficiency lymphocyte cell growth versus 4 HNE only", "setting": "pretreatment 2 hours before 3.5 μM 4 HNE challenge, 2 to 10 μM compound", "value": "higher levels of cell growth; also recorded: higher efficacy than AC32"}]}
